Source: patent US20080070875A1, “Acne treatment compositions and methods of use” (priority 2006, published 2008)
Read-outs that look alike come from different tables or passages of the source.

Tested on: P. acnes (MicroBiologics, ATCC #11827)
Experiment: Minimal inhibitory concentration (MIC) against P. acnes, serial dilution in thioglycollate broth
Format: cell-based, Propionbacterium acnes
Conditions: for MIC: Cutibacterium acnes
Method: The objective of this example was to establish the minimal inhibitory concentration (MIC) of quercetin (Q), rosmarinic acid (RA), triclosan (T) and salicylic acid (SA) towards the bacterium P. acnes. Combinations of quercetin with rosmarinic acid 1:1 (Q+RA) and quercetin with salicylic acid (1:1) (Q+SA) were also tested.
The following methods were used in this example. P. acnes (MicroBiologics, ATCC #11827, batch #419697) was inoculated at 3 different dilutions and grown on blood agar plates for 3 days in anaerobic condition at 37 C. About 10 colonies were than suspended in thioglycollate broth in order to achieve the density equivalent to 0.5 McFarland standard. Test materials were dissolved in the thioglycollate broth at following concentrations:
The antimicrobial effect of the test samples was assayed by making serial dilutions for each material or the 1:1 combination thereof, followed by anaerobic incubation with bacterial agent in thioglycollate brothin a 96 well plate, at the initial density of 5×10^5 CFU/ml (0.001 McFarland standard). MIC was determined visually after 84 hours and confirmed by spectrophotometry at 405 nm with the BioRad 3550-UV microplate reader, using media with respective test materials without bacteria for background subtraction.

[1] = ATCC11827, anaerobic incubation in thioglycollate broth, 84 hours, visual, confirmed at 405 nm, read-out: MIC
[2] = anaerobic incubation in thioglycollate broth, 84 hours

MIC [1]	MIC (%) [2]	SMILES	activity towards inhibiting P. acnes in the presence of salicylic acid (in the presence of salicylic acid (1:1), result in words)	activity towards inhibiting P. acnes (result in words)	MIC (ATCC11827, 84 h)
30 µg/mL	0.003%	O=c1c(O)c(-c2ccc(O)c(O)c2)oc2cc(O)cc(O)c12 [Q, 2-(3,4-dihydroxyphenyl)-3,5,7-trihydroxy-4H-1-benzopyran-4-one]	maintained activity	significant activity	–
30 µg/mL	0.003%	O=C(/C=C/c1ccc(O)c(O)c1)O[C@H](Cc1ccc(O)c(O)c1)C(=O)O [RA]	–	significant activity	–
> 2000 µg/mL	2%	O=C(O)c1ccccc1O [SA, 2-Hydroxybenzoic acid, reference compound]	–	–	–

SMILES	MIC [1]	MIC (%) [2]	activity towards inhibiting P. acnes in the presence of salicylic acid (in the presence of salicylic acid (1:1), result in words)	activity towards inhibiting P. acnes (result in words)	MIC (ATCC11827, 84 h)
Oc1cc(Cl)ccc1Oc1ccc(Cl)cc1Cl [T, triclosan, reference compound]	–	0.4%	–	–	400 µg/mL
